Measurements: patent US10995099B2, “Compounds and their uses as ACC inhibitors” (NANJING RUIJIE PHARMATECH CO., LTD., priority 2017, dated 2021)
Read-outs that look alike come from different tables or passages of the source.

Assays:
HepG2 = experiment: EC50 in HepG2; assay type: cell-based
ACC2 = ACC2 (Homo sapiens (Human), UniProt O00763); experiment: In vitro ACC inhibition assay (ADP-Glo), ACC2; assay type: biochemical
Method: (§1) Compounds of the present invention were evaluated in an in vitro ACC inhibition assay as described by Harwood, et al, 2003, the entirety of which is incorporated herein by reference.
(§2) In Vitro Acetyl-CoA Carboxylase (ACC) Inhibition Assay
(§3) An exemplary procedure for the in vitro ACC inhibition assay, which can be used to determine the inhibitory action of compounds of the invention toward either ACC1 or ACC2, follows. The ADP-Glo™ Kinase Assay kit from Promega was used. The ADP-Glo™ Kinase Assay is a luminescent ADP detection assay to measure enzymatic activity by quantifying the amount of ADP produced during an enzyme reaction. The assay is performed in two steps; first, after the enzyme reaction, an equal volume of ADP-Glo™ Reagent is added to terminate the reaction and deplete the remaining ATP. Second, the Kinase Detection Reagent is added to simultaneously convert ADP to ATP and allow the newly synthesized ATP to be measured using a luciferase/luciferin reaction. Luminescence can be correlated to ADP concentrations by using an ATP-to-ADP conversion curve. The detailed procedure is as follows. 50 μL of the compound being tested (600 uM in DMSO) was added to a 384-well dilution plate. The compound was diluted 1:3 in succession in DMSO for each row for 11 wells. 0.5 μL ACC2 working solution was added to 384-well white Optiplate assay plate. 0.5 μL diluted compound solution in each column from step 2 to assay plate, each row containing 2 replicates. […] The plates were incubated at room temperature for 15 minutes. 5 μL substrate working solution was added to each well to initiate reaction. Final ACC2 reaction concentrations consist of: 5 nM ACC2, 20 μM ATP, 20 μM acetyl-CoA, 12 mM NaHCO3, 0.01% Brij35, 2 mM DTT, 5% DMSO, test compound concentrations: 30 μM, 10 μM, 3.33 μM, 1.11 μM, 0.37 μM, 0.123 μM, 0.0411 μM, 0.0137 μM, 0.00457 μM, 0.00152 μM, and 0.00051 μM. Plates were incubated at room temperature for 60 minutes. 10 μL ADP glo reagent was added. Plates were incubated at room temperature for 40 minutes. 20 μL kinase detection reagent was added. Plates were incubated at room temperature for 40 minutes, then read on a Perkin Elmer EnVision 2104 plate reader for luminescence as Relative Light Units (RLU).
(§4) Data for each concentration, as well as the positive and negative controls were averaged, and the standard deviation calculated. Percent inhibition was calculated by the formula: 100×(average negative control-compound)/(average negative control-average positive control). The IC50 for each compound was calculated by fitting the data with a non-linear regress ion equation: Y=Bottom+(Top−Bottom)/(1+10((Log IC50−X* HillSlope)), where X is the log of compound concentration and Y is percent inhibition.

ACC1 = ACC1 (Homo sapiens (Human), UniProt Q13085); experiment: In vitro ACC inhibition assay (ADP-Glo), ACC1; assay type: biochemical
Method: as §1, §2, §3, §4

[1] = Homo sapiens, HepG2, read-out: EC50 (μM) HepG2
[2] = 5 nM ACC2, 20 μM ATP, 20 μM acetyl-CoA, read-out: IC50 (μM) ACC2
[3] = ND630 versus RJ compounds, isoform not given, read-out: IC50 (μM) ND630/RJ-cmps(%)
[4] = HepG2, read-out: EC50 (μM) HepG2
[5] = ND630 versus RJ compounds, read-out: EC50 (μM) ND630/RJ-cmps(%)

Chain of ACC2 (O00763 whole entry, species assumed): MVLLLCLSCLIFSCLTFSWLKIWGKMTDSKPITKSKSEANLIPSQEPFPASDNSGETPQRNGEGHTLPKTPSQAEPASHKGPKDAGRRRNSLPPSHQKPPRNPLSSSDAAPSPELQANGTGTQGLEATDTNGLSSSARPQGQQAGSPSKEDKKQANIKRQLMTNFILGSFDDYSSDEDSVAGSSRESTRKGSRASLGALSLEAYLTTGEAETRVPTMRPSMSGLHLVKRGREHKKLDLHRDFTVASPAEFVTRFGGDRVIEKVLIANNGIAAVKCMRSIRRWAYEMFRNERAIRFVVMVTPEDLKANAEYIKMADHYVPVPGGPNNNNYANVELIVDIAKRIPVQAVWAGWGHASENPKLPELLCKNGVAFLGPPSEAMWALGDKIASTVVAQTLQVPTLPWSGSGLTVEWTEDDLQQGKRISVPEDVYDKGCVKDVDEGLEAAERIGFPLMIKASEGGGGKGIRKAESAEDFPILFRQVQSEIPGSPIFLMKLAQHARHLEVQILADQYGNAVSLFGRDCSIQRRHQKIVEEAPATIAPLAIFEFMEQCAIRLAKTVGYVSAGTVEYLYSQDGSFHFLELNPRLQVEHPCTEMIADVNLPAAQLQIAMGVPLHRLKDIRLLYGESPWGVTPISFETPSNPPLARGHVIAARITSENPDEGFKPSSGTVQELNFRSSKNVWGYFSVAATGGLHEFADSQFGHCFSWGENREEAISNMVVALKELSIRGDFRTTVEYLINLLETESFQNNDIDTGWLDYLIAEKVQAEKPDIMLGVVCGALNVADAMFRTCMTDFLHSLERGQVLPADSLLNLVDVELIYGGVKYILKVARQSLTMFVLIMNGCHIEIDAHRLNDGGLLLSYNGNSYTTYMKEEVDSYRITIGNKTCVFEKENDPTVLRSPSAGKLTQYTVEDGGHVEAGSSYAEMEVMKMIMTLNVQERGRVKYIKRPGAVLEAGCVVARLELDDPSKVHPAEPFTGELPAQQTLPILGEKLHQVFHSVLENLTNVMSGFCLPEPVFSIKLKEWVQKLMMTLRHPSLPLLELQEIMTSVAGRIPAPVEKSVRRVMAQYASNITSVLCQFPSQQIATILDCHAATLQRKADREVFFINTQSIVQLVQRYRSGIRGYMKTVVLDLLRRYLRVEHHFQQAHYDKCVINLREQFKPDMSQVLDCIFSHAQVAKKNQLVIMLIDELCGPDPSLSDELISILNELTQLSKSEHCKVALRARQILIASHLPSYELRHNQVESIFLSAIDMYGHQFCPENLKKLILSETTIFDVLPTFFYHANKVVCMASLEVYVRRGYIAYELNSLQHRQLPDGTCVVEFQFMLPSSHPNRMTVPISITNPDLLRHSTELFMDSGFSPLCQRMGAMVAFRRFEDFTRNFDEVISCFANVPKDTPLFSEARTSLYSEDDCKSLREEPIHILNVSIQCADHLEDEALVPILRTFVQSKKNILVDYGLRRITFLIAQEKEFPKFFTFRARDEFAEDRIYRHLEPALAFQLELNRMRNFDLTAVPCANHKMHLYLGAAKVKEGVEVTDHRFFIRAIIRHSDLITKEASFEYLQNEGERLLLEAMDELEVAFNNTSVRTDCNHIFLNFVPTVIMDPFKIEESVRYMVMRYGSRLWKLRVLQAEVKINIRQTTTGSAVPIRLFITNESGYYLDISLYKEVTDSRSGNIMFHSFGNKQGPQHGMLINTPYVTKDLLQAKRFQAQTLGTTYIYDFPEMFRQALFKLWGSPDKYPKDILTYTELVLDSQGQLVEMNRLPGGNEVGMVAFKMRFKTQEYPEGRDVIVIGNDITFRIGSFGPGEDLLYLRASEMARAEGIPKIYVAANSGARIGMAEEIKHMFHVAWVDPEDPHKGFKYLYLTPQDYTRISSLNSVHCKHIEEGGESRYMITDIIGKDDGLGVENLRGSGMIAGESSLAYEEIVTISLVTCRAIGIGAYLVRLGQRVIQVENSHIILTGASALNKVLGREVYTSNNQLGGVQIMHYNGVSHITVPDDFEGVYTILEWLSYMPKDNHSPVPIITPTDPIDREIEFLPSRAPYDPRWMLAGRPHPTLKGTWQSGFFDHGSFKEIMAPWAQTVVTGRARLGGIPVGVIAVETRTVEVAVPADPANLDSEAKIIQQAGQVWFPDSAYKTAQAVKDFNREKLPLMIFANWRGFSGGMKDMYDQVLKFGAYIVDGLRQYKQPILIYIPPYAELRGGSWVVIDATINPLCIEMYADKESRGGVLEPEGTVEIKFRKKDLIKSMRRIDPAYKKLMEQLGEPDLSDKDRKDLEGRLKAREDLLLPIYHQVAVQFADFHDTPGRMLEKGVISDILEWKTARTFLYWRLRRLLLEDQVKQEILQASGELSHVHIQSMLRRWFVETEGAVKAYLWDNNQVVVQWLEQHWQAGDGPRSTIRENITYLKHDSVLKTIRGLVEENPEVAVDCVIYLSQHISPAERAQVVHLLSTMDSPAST

Row | Compound | EC50 (HepG2; [1]) [µM] | EC50 (HepG2; Homo sapiens, ND630 versus RJ compounds, read-out: EC50 (μM) ND630/RJ-cmps(%)) [µM] | IC50 (ACC2; [2]) [µM] | IC50 (ACC2; [3]) [µM] | EC50 (HepG2; [4]) [µM] | EC50 (HepG2; [5]) [µM] | IC50 (ACC1) [µM]
1 | COc1ccccc1C(Cn1c(=O)n(C2(C(=O)O)CC2)c(=O)c2c(C)c(-c3ncco3)sc21)OC1CCOCC1 (centres unmarked) [Example 3, 1-[1-[2-(2-methoxyphenyl)-2-tetrahydropyran-4-yloxy-ethyl]-5-methyl-6-oxazol-2-yl-2,4-dioxo-thieno[2,3-d]pyrimidin-3-yl]cyclopropanecarboxylic acid] | 0.01 to 0.1 | > 1 | 0.01 to 0.1 | 0.005 to 0.01 | – | – | –
2 | COc1ccccc1C(Cn1c(=O)n(C2(C(=O)O)CC2)c(=O)c2c(C)c(Br)sc21)OC1CCOCC1 (centres unmarked) [Example 4, 1-(6-bromo-1-(2-(2-methoxyphenyl)-2-(tetrahydro-2H-pyran-4-yloxy)ethyl)-5-methyl-2,4-dioxo-1,2-dihydrothieno[2,3-d]pyrimidin-3(4H)-yl)cyclopropanecarboxylic Acid] | 0.01 to 0.1 | – | 0.01 to 0.1 | 0.005 to 0.01 | – | – | –
3 | COc1ccccc1[C@H](Cn1c(=O)n(C(C)(C)C(=O)O)c(=O)c2c(C)c(-c3ncco3)sc21)OC1CCOCC1 [Example 8] | – | – | 0.01 to 0.1 | 0.005 to 0.01 | > 1 | > 1 | –
4 | COc1ccccc1[C@H](Cn1c(=O)n(C(C)(C)C(=O)O)c(=O)c2c(C)c(-c3nnco3)sc21)OC1CCOCC1 [Example 9] | – | – | 0.1 to 1 | 0.005 to 0.01 | > 1 | > 1 | –
5 | COc1ccccc1C(Cn1c(=O)n(C(C)(C)C(=O)O)c(=O)c2c(C)c(Br)sc21)OC1CCOCC1 (centres unmarked) [Example 10] | – | – | 0.01 to 0.1 | 0.005 to 0.01 | 0.1 to 1 | > 1 | –
6 | COc1ccccc1C(Cn1c(=O)n(C(C)(C)C(=O)O)c(=O)c2cc(C)c(-c3ncco3)cc21)OC1CCOCC1 (centres unmarked) [Example 11] | – | – | > 1 | 0.005 to 0.01 | – | 0.01 to 0.1 | –
7 | COc1ccccc1C(Cn1c(=O)n(C(C)(C)C(=O)O)c(=O)c2cc(C)c(Br)cc21)OC1CCOCC1 (centres unmarked) [Example 12] | – | – | > 1 | 0.005 to 0.01 | – | 0.01 to 0.1 | –
8 | COc1ccccc1C(O)Cn1c(=O)n(C(C)(C)C(=O)O)c(=O)c2cc(C)c(-c3ncco3)cc21 (centres unmarked) [Example 13] | – | – | > 1 | 0.005 to 0.01 | – | 0.01 to 0.1 | –
9 | COc1ccccc1[C@H](Cn1c(=O)n(C2(C(=O)O)CC2)c(=O)c2c(C)csc21)OC1CCOCC1 [Example 17] | – | – | > 1 | 0.005 to 0.01 | – | – | –
10 | COc1ccccc1C(Cn1c(=O)n(C2(CC(=O)N3CCOCC3)CC2)c(=O)c2c(C)c(Br)sc21)OC1CCOCC1 (centres unmarked) [Example 23] | – | – | 0.1 to 1 | 0.003 to 0.005 | – | 0.1 to 1 | –
11 | COc1ccccc1C(Cn1c(=O)n(C2(C(=O)O)CCCC2)c(=O)c2c(C)c(-c3ncco3)sc21)OC1CCOCC1 (centres unmarked) [Example 25] | – | – | < 0.01 | 0.003 to 0.005 | – | 0.1 to 1 | –
12 | COc1ccccc1C(Cn1c(=O)n(C2(C(=O)O)CCC2)c(=O)c2c(C)c(-c3ncco3)sc21)OC1CCOCC1 (centres unmarked) [Example 26] | – | – | < 0.01 | 0.003 to 0.005 | – | 0.1 to 1 | –
13 | COCc1sc2c(c1C)c(=O)n(C1(C(=O)O)CCCC1)c(=O)n2C[C@H](CC1CCOCC1)c1ccccc1OC [Example 27] | – | – | > 1 | 0.003 to 0.005 | – | 0.1 to 1 | –
14 | COc1ccccc1[C@@H](Cn1c(=O)n(C2(C(=O)O)CC2)c(=O)c2c(C)c(-c3ncco3)sc21)OC1CCOCC1 [Example 28] | – | – | 0.1 to 1 | 0.003 to 0.005 | – | 0.1 to 1 | –
15 | COc1ccccc1[C@@H](Cn1c(=O)n(C2(C(=O)O)CC2)c(=O)c2c(C)c(Br)sc21)OC1CCOCC1 [Example 32] | – | – | 0.1 to 1 | 0.003 to 0.005 | – | 0.1 to 1 | –
16 | COc1ccccc1[C@H](Cn1c(=O)n(C2(C(=O)O)CCC2)c(=O)c2c(C)c(CN)sc21)OC1CCOCC1 [Example 34] | – | – | > 1 | 0.003 to 0.005 | – | 0.1 to 1 | –
17 | COc1ccccc1[C@H](Cn1c(=O)n(C2(C(=O)O)CC2)c(=O)c2cc(-c3ncco3)ccc21)OC1CCOCC1 [Example 39] | – | – | > 1 | 0.005 to 0.01 | 0.1 to 1 | 0.01 to 0.1 | –

Other lines, results leading:

Row | EC50 (HepG2; [1]) [µM] | EC50 (HepG2; Homo sapiens, ND630 versus RJ compounds, read-out: EC50 (μM) ND630/RJ-cmps(%)) [µM] | IC50 (ACC2; [2]) [µM] | IC50 (ACC2; [3]) [µM] | EC50 (HepG2; [4]) [µM] | EC50 (HepG2; [5]) [µM] | IC50 (ACC1) [µM] | Compound
18 | – | – | < 0.01 | 0.005 to 0.01 | < 0.01 | > 1 | 0.001 to 0.01 | COc1ccccc1C(Cn1c(=O)n(C2(C(N)=O)CCCC2)c(=O)c2c(C)c(-c3ncco3)sc21)OC1CCOCC1 (centres unmarked) [Example 43]
19 | – | – | 0.01 to 0.1 | 0.005 to 0.01 | < 0.01 | > 1 | 0.001 to 0.01 | CNC(=O)C1(n2c(=O)c3c(C)c(-c4ncco4)sc3n(CC(OC3CCOCC3)c3ccccc3OC)c2=O)CCCC1 (centres unmarked) [Example 44]
20 | – | – | < 0.01 | 0.005 to 0.01 | 0.1 to 1 | > 1 | – | COc1ccccc1[C@H](Cn1c(=O)n(C2(C(=O)O)CC2)c(=O)c2c(C)c(-n3cccn3)sc21)OC1CCOCC1 [Example 45]
21 | – | – | < 0.01 | 0.003 to 0.005 | 0.1 to 1 | > 1 | – | COc1ccccc1C(Cn1c(=O)n(C2(C(N)=O)CCCC2)c(=O)c2c(C)c(Br)sc21)OC1CCOCC1 (centres unmarked) [Example 48]
22 | – | – | < 0.01 | 0.003 to 0.005 | 0.1 to 1 | 0.1 to 1 | – | COc1ccccc1[C@H](Cn1c(=O)n(C2(C(=O)O)CC2)c(=O)c2c(C)c(-n3nccn3)sc21)OC1CCOCC1 [Example 49]
23 | – | – | 0.01 to 0.1 | 0.003 to 0.005 | – | 0.1 to 1 | – | CNC(=O)C1(n2c(=O)c3c(C)c(Br)sc3n(CC(OC3CCOCC3)c3ccccc3OC)c2=O)CCCC1 (centres unmarked) [Example 50]
24 | – | – | 0.1 to 1 | 0.005 to 0.01 | – | – | – | COc1ccccc1[C@H](Cn1c(=O)n(C2(C(=O)O)CC2)c(=O)c2c(C)c(-n3cncn3)sc21)OC1CCOCC1 [Example 56]
25 | – | – | 0.1 to 1 | 0.005 to 0.01 | 0.1 to 1 | – | – | CNC(=O)C1(n2c(=O)c3cc(Br)sc3n(C[C@H](OC3CCOCC3)c3ccccc3OC)c2=O)CC1 [Example 57]
26 | – | – | 0.01 to 0.1 | > 0.01 | – | – | 0.01 to 0.05 | COc1ccccc1[C@H](Cn1c(=O)n(C2(CC(=O)O)CC2)c(=O)c2c(C)c(Br)sc21)OC1CCOCC1 [Example 59]
27 | – | – | 0.01 to 0.1 | > 0.01 | – | – | 0.01 to 0.05 | COc1ccccc1[C@H](Cn1c(=O)n(C2(CC(N)=O)CC2)c(=O)c2c(C)c(Br)sc21)OC1CCOCC1 [Example 60]
28 | – | – | 0.01 to 0.1 | – | > 1 | – | – | COCCNC(=O)CC1(n2c(=O)c3c(C)c(-c4ncco4)sc3n(CC(OC3CCOCC3)c3ccccc3OC)c2=O)CC1 (centres unmarked) [Example 65]
29 | – | – | 0.01 to 0.1 | > 0.01 | – | – | 0.001 to 0.01 | COc1ccccc1[C@H](Cn1c(=O)n(C(C)(C)C(=O)OC(C)(C)C)c(=O)c2c(C)c(-c3ncco3)sc21)OC1CCOCC1 [Example 66]
30 | – | – | 0.1 to 1 | > 0.01 | – | – | > 0.05 | COC(=O)C1(n2c(=O)c3c(C)c(Br)sc3n(C[C@H](OC3CCOCC3)c3ccccc3OC)c2=O)CCC1 [Example 67]
31 | – | – | 0.1 to 1 | > 0.01 | – | – | > 0.05 | COc1ccccc1[C@H](Cn1c(=O)n(C(C)(C)C(=O)OC(C)(C)C)c(=O)c2c(C)c(Br)sc21)OC1CCOCC1 [Example 68]
32 | – | – | 0.01 to 0.1 | 0.005 to 0.01 | > 1 | > 1 | – | COc1ccccc1[C@H](Cn1c(=O)n(C2(C(=O)O)CC2)c(=O)c2c(C)c(-c3cnco3)sc21)OC1CCOCC1 [Example 80]
33 | – | – | 0.01 to 0.1 | 0.005 to 0.01 | 0.01 to 0.1 | > 1 | – | COc1ccccc1C(Cn1c(=O)n(C2(CC(=O)O)CC2)c(=O)c2c(C)c(-c3ncco3)sc21)OC1CCOCC1 (centres unmarked) [Example 82]
